Key:
[1] = partition coefficient of the active product between membrane phase and internal phase (octanol/water) and ratio R2 over membrane viscosity; assay type: physicochemical; details: concentration in octanol over concentration in water
Description: The ratio of the partition coefficient Cp of the active product 20 between the membrane 18 and the internal drop 16 is obtained by determining the partition coefficient of this active product 20 between a homologous phase to the intermediate phase forming the membrane 18 and a homologous phase to the internal phase forming the internal drop 16. The ratio Cp is calculated with the following equation: Cp=K=[active in the membrane phase]/[active in the internal phase].
In particular, when the internal drop 16 is aqueous, and when the membrane 18 is oily, the ratio Cp may be estimated by using log P=log K with: Cp=K=[active in octanol]/[active in water].
Further, the value of log P (=log (K)) may be simply evaluated by means of easily accessible molecular modeling software packages on the Internet such as for example on www.molispiration.com, www.vcclab.org/lab/alogps/start.html.
Experimental determination is possible with the following method: an accurate amount of the active is weighed and solubilized in one of the two water or octanol phases. Two equivalent volumes of both phases are then put into contact with stirring. The concentrations of the active product in each of both phases are then measured after thermodynamic equilibrium of the system. This concentration measurement may for example be carried out by directly measuring the absorbance, if the molecule absorbs light, or by liquid chromatography. This measurement is for example carried out at 22° C.
The coefficient K is then determined experimentally by the ratio of the concentration of the active in octanol over that in water.

[2] = leakage of encapsulated active product into the continuous phase (optical absorbance versus time); assay type: physicochemical
From the text: FIG. 4 is a graph illustrating the absorbance in the continuous phase in a dispersion according to the invention, wherein an active absorbent product was encapsulated in the dispersed phase;
FIG. 5 is a view similar to FIG. 4 for a dispersion according to the invention containing another absorbent active product; and
FIGS. 4 and 5 respectively illustrate the ratio of optical absorbance in the continuous phase 14 versus time for respectively the dispersion of the first example containing dextran, and for the dispersion of the second example containing bovine serum albumin.

[3] = absorbance in continuous phase, after more than one week at 50° C., R1 0.38

Compound	partition coefficient (K, Cp) of the active product [1]	leakage of active product from the dispersed bodies [2, 3]	leakage of active product from the dispersed bodies ([2]; R2 equal to 3.05, time and temperature not stated)
bovine serum albumin	less than 10^−3	no leakage	–
dextran	less than 10^−2	no leakage	–
CCN(CC)c1ccc2c(-c3ccccc3C(=O)O)c3ccc(=[N+](CC)CC)cc-3oc2c1.[Cl-] [Rhodamine B]	70.8	–	leakage is observed

— patent US10143650B2, “Dispersion intended for encapsulating an active product and associated use” (CAPSUM, priority 2012, dated 2018)
